Data reported in US8993566B2, “Quinoline compound composing 1,2,4-triazine-dione and use thereof” (Wuhan Shengyun Biopharma Co., Ltd., priority 2012, dated 2015).
Converted amounts (≈) assume the structure as drawn.

Experiments:
[1] = tested on: human nonsmall-cell lung cancer cell H460; assay: In vitro anti-tumor cell activity (MTT), H460; type: cell-based; details: H460 cells, MTT, 72 h, Bliss method; for IC50: Homo sapiens, NCI-H460, read-out: H460 IC50
Method: (§1) The digested cell solution was poured into a centrifuge tube, to which a culture media was added to stop the digestion. The centrifuge tube was centrifuged at 800 r/min for 10 min, the supernatant was removed gently and then 5 mL of the culture media was added. The cells were pipetted and mixed homogeneously. 10 μL cell suspension was taken into a cell counting plate for counting, wherein the cell concentration was adjusted to 10^4 cells/well. To each well of a 96-well plate, except for A1 well as blank control, was added 100 μL of the cell suspension. The 96-well plate was placed in an incubator and cultivated for 24 h. […] The 96-well plate was placed in an incubator and cultivated for 72 h. (3) The culture media containing the compounds in the 96-well plate was removed, and the cells were washed with phosphate buffered solution (PBS) twice. To each well was added 100 μL MTT (tetrazole) (0.5 mg/mL), after placing the plate in an incubator to incubate for 4 h, the MTT solution was removed and 100 μL dimethyl sulfoxide was added. The reaction product of survival cells with MTT, i.e. formazan, was dissolved completely by oscillation on a magnetic oscillator, and then placed into a microplate reader to measure the results, and the IC50 values of compounds could be deduced by Bliss method.

[2] = tested on: human colon cancer cell HT-29; assay: In vitro anti-tumor cell activity (MTT), HT-29; type: cell-based; details: HT-29 cells, MTT, 72 h, Bliss method; for IC50: Homo sapiens, read-out: HT-29 IC50
Method: as §1

[3] = tested on: human gastric cancer cell MKN-45; assay: In vitro anti-tumor cell activity (MTT), MKN-45; type: cell-based; details: MKN-45 cells, MTT, 72 h, Bliss method; for IC50: Homo sapiens, read-out: MKN-45 IC50
Method: as §1

[4] = tested on: human hepatoma carcinoma cell line SMMC-7721; assay: In vitro anti-tumor cell activity (MTT), SMMC-7721; type: cell-based; details: SMMC-7721 cells, MTT, 72 h, Bliss method; for IC50: Homo sapiens, read-out: SMMC-7721 IC50
Method: as §1

[5] = biological target: T1, c-Met kinase (His-tagged recombinant human Met (amino acids 974-end)) (Homo sapiens, UniProt P08581); assay: c-Met Enzyme Activity Inhibition Assay (ELISA); type: biochemical; details: 50 pM c-Met, 5 μM ATP, room temperature 20 min; for IC50: read-out: IC50 for inhibiting c-Met kinase (converted)
T1 construct: His-tagged recombinant human Met (amino acids 974-end); His
Method: c-Met Enzyme Activity Inhibition Assay
The assay for the determination of c-Met kinase activity is based on an enzyme linked immunosorbant assay (ELISA). A compound of Formula I, 50 pM c-Met (His-tagged recombinant human Met (amino acids 974-end), expressed by baculovirus), and 5 μM ATP in an assay buffer (25 mM MOPS, pH 7.4, 5 mM MgCl2, […], 100 μM sodium orthovanadate, 0.01% Triton X-100, 1 mM DTT, final DMSO concentration 1% (v/v)) were incubated on a plate coated with 0.25 mg/mL POT at room temperature for 20 min. The reaction mixture was removed by washing and the phosphorylated polymer substrate was detected with 0.2 μg/mL phosphotyrosine specific monoclonal antibody (PY20) conjugated to horseradish peroxidase (HRP). After the addition of 1M phosphoric acid to stop the development, the chromogenic substrate (TMB) color was quantitated by spectrophotometry at 450 nm.

T1 sequence (P08581 956-1390): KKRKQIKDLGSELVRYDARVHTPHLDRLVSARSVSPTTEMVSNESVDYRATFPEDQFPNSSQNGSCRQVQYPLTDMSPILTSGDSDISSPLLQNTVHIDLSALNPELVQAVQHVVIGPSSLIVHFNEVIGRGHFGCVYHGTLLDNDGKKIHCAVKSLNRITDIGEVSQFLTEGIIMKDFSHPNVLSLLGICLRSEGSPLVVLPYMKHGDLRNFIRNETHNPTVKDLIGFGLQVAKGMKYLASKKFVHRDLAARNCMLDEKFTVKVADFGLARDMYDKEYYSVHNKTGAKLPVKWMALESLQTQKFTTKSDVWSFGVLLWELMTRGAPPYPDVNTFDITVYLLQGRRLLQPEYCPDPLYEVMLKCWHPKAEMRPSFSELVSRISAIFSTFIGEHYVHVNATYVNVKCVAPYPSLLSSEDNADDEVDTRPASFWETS

Row | SMILES | IC50 [1] [µg/mL] | IC50 [2] [µg/mL] | IC50 [3] [µg/mL] | IC50 [4] [µg/mL] | IC50 [5] [nM] | H460 IC50 [1] [µg/mL] | HT-29 IC50 [2] [µg/mL] | MKN-45 IC50 [3] [µg/mL] | SMMC-7721 IC50 [4] [µg/mL] | IC50 for inhibiting c-Met kinase [5] [µg/mL]
1 | COc1cc2c(Oc3ccc(NC(=O)c4nn(-c5ccc(F)cc5)c(=O)n(C)c4=O)cc3F)ccnc2cc1OCCCN1CCCC1 [Example 6, N-[3-fluoro-4-[6-methoxy-7-[3-(1-pyrrolidyl]propyloxy]quinolin-4-oxy]phenyl]-2-(4-fluorophenyl)-4-methyl-3,5-dioxo-2,3,4,5-tetrahydro-1,2,4-triazine-6-carboxamide] | 0.032 (≈ 0.0486 µM) | 0.06 (≈ 0.0911 µM) | 0.021 (≈ 0.0319 µM) | 0.11 (≈ 0.167 µM) | 48.6 |  |  |  |  | 
2 | COc1cc2c(Oc3ccc(NC(=O)c4nn(-c5ccc(Br)cc5)c(=O)n(C)c4=O)cc3F)ccnc2cc1OCCCN1CCCCC1 [Example 7] |  |  |  |  |  | 0.13 | 0.27 | 0.033 | 0.21 | 0.048
3 | COc1cc2c(Oc3ccc(NC(=O)c4nn(-c5ccc(F)cc5)c(=O)n(C)c4=O)cc3F)ccnc2cc1OCCCN1CCOCC1 [Example 8, N-[3-fluoro-4-[6-methoxy-7-[3-(4-morpholinyl)propyloxy]quinolin-4-oxy]phenyl]-2-(4-fluorophenyl)-4-methyl-3,5-dioxo-2,3,4,5-tetrahydro-1,2,4-triazine-6-carboxamide] | 0.33 (≈ 0.489 µM) | 0.28 (≈ 0.415 µM) | 0.077 (≈ 0.114 µM) | 0.42 (≈ 0.623 µM) | 623 |  |  |  |  | 
4 | COc1cc2c(Oc3ccc(NC(=O)c4nn(-c5ccc(F)cc5)c(=O)n(C)c4=O)cc3F)ccnc2cc1OCCCN1CCC(C)CC1 [Example 9, N-[3-fluoro-4-[6-methoxy-7-[3-(4-methyl-1-piperidinyl)propyloxy]quinolin-4-oxy]phenyl]-2-(4-fluorophenyl)-4-methyl-3,5-dioxo-2,3,4,5-tetrahydro-1,2,4-triazine-6-carboxamide] | 0.17 (≈ 0.248 µM) | 0.21 (≈ 0.306 µM) | 0.065 (≈ 0.0947 µM) | 0.09 (≈ 0.131 µM) | 233 |  |  |  |  | 
5 | COc1cc2c(Oc3ccc(NC(=O)c4nn(-c5ccc(F)cc5)c(=O)n(C)c4=O)cc3F)ccnc2cc1OCCCN1CCN(C)CC1 [Example 10, N-[3-fluoro-4-[6-methoxy-7-[3-(4-methyl-1-piperazinyl)propyloxy]quinolin-4-oxy]phenyl]-2-(4-fluorophenyl)-4-methyl-3,5-dioxo-2,3,4,5-tetrahydro-1,2,4-triazine-6-carboxamide] | 0.0081 (≈ 0.0118 µM) | 0.093 (≈ 0.135 µM) | 0.0065 (≈ 0.00945 µM) | 0.11 (≈ 0.16 µM) | 106 |  |  |  |  | 
6 | COc1cc2c(Oc3ccc(NC(=O)c4nn(-c5ccc(F)c(F)c5)c(=O)n(C)c4=O)cc3F)ccnc2cc1OCCCN1CCCC1 [Example 16, N-[3-fluoro-4-[6-methoxy-7-[3-(1-pyrrolidyl)propyloxy]quinolin-4-oxy]phenyl]-2-(3,4-difluorophenyl)-4-methyl-3,5-dioxo-2,3,4,5-tetrahydro-1,2,4-triazine-6-carboxamide] | 0.22 (≈ 0.325 µM) | 0.3 (≈ 0.443 µM) | 0.027 (≈ 0.0399 µM) | 0.34 (≈ 0.502 µM) | 783 |  |  |  |  | 
7 | COc1cc2c(Oc3ccc(NC(=O)c4nn(-c5ccc(F)c(F)c5)c(=O)n(C)c4=O)cc3F)ccnc2cc1OCCCN1CCCCC1 [Example 17, N-[3-fluoro-4-[6-methoxy-7-[3-(1-piperidinyl)propyloxy]quinolin-4-oxy]phenyl]-2-(3,4-difluorophenyl)-4-methyl-3,5-dioxo-2,3,4,5-tetrahydro-1,2,4-triazine-6-carboxamide] | 0.22 (≈ 0.319 µM) | 0.3 (≈ 0.434 µM) | 0.027 (≈ 0.0391 µM) | 0.19 (≈ 0.275 µM) | 420 |  |  |  |  | 
8 | COc1cc2c(Oc3ccc(NC(=O)c4nn(-c5ccc(F)c(F)c5)c(=O)n(C)c4=O)cc3F)ccnc2cc1OCCCN1CCOCC1 [Example 18, N-[3-fluoro-4-[6-methoxy-7-[3-(4-morpholinyl)propyloxy]quinolin-9-oxy]phenyl]-2-(3,4-difluorophenyl)-4-methyl-3,5-dioxo-2,3,4,5-tetrahydro-1,2,4-triazine-6-carboxamide] |  |  |  |  |  | 0.57 | 0.3 | 0.0008 | 0.45 | 0.32
